Several values for one entry are separate records, joined by “and”; a condition that tells them apart may be missing. Equal values may be shown once. Read-outs that look alike come from different tables or passages of the source.
Test: Phase I/IIa clinical PK of oral psilocin-d10, plasma, noncompartmental analysis (Cohorts 1-6)
Type: in vivo, human
Settings: for AUC(0-inf): read-out: AUC0-inf Mean (SD)
Protocol: Phase I/IIa, Randomized, Double-Blind, Placebo-Controlled Study which assesses the safety, tolerability, pharmacokinetics, and pharmacodynamics of multiple ascending oral doses of psilocin-d10 in participants with and without MDD (ClinicalTrials.gov Identifier: NCT05385783). All subjects receiving study medication in Cohorts 1-6 received oral psilocin-d10 powder in solution (0.1M citric acid+Tang orange drink, 30 mL dose in a dose cup) and subjects receiving placebo received a similar volume of Tang orange drink without the psilocin-d10 study drug. All subjects receiving study medication in the relative bioavailability (BA) cohort received powder-filled capsules containing psilocin-d10 benzenesulfonate salt by ingestion with approximately 240 mL room temperature water, or oral psilocin-d10 powder in solution (0.1M citric acid+Tang orange drink, 30 mL dose in a dose cup) in a cross-over design. Psilocin-d10 for the powder in solution dosage form was manufactured by Patheon Pharma Services, with an isotopic purity of 79.89%. Psilocin-d10 benzenesulfonate salt for the powder-filled capsule dosage form was manufactured by Patheon Pharma Services, with an isotopic purity of 85.20%.
Cohorts 1, 4, 5, and 6 of the study was comprised of participants with MDD. Cohorts 2, 3, and the relative BA cohort of the study were comprised of normal healthy volunteers (NHV). […] MDD participants had been on a stable dose of antidepressant medication for at least one month prior to screening with an inadequate response to that antidepressant medication as judged by the Investigator, and continued to receive their prescribed antidepressant throughout the course of the study.
Cohort 1. For Cohort 1, 2 sentinel subjects were randomized and dosed, including 1 subject who received a psilocin-d10 1 mg oral dose and 1 subject who received a placebo dose. After the sentinel subjects were dosed, an additional 2 subjects were dosed, including a replacement subject for one of the sentinel subjects who withdrew consent and one additional subject. In total, four Cohort 1 subjects received a first dose of study medication on Day 1, and 3 subjects received a second dose of study medication on Day 22. For the first dose, 2 subjects received an active psilocin-d10 1 mg dose and 2 subjects received placebo. For the second dose, 3 subjects received an active psilocin-d10 1 mg dose.
Cohort 2. For Cohort 2, 4 subjects were randomized and dosed on Day 1 (2 subjects on one day, 2 subjects on the next day), including 3 subjects who received a psilocin-d10 3 mg oral dose and 1 subject who received a placebo dose. These same 4 subjects were again dosed on Day 8 (2 subjects on one day, 2 subjects on the next day), with all 4 subjects receiving a psilocin-d10 8 mg oral dose (note the actual washout was 11 days between doses).
Cohort 3. For Cohort 3 Day 1, 4 subjects were randomized and dosed on Day 1 (2 subjects on one day, 2 subjects on the next day), including 3 subjects who received a psilocin-do 8 mg oral dose and 1 subject who received a placebo dose. […] Another subject was dosed and left the study after the 2-hour PK sampling and has limited PK samples available for analysis from 0 to 2 hours—this subject's PK data has thus been excluded from the analysis presented hereinafter. For Cohort 3 Day 8, 3 subjects were dosed on Day 8 with a psilocin-d10 10 mg dose (2 sentinel subjects were dosed on one day, 1 non-sentinel subject was dosed on the next day).
Cohorts 4 and 5. For Cohorts 4 and 5, 12 participants each (24 participants total) were randomized in a 3:1 ratio to receive 12 mg of psilocin-d10 or matched placebo in a single dosing session on Day 1. Following a 21-day interval, all participants received a dose of 12 mg psilocin-d10 on Day 22 (second dose for participants originally randomized to psilocin-d10, first dose for participants randomized to placebo), and were followed to Day 42.
Cohort 6. […]

## [2H]C([2H])([2H])N(C([2H])([2H])[2H])C([2H])([2H])C([2H])([2H])c1c[nH]c2cccc(O)c12 [psilocin-d10, 3-(2-(bis(methyl-d3)amino)ethyl-1,1,2,2-d4)-1H-indol-4-ol]
1 mg oral, Cohort 1 MDD, Day 1 and Day 22 pooled
  CL/F Mean (SD): 101.08 (18.94) L/h
3 mg oral, Cohort 2 NHV, Day 1
  CL/F Mean (SD): 85.22 (11.21) L/h
8 mg oral, Cohorts 2 and 3 NHV, Day 1 and Day 8 pooled, 2 subjects excluded
  Cmax Mean (SD): 15.00 (4.85) ng/ml and 15.00^3 ng/ml
8 mg oral, Cohorts 2 and 3 NHV, pooled
  CL/F Mean (SD): 97.56 (31.21) L/h
8 mg oral, Cohorts 2 and 3 NHV, pooled, 2 subjects excluded
  AUC0-24 Mean (SD): 83.98 (21.46) h*ng/mL and 83.98^3 h*ng/mL
10 mg oral, Cohort 3 NHV, Day 8
  CL/F Mean (SD): 104.7 (40.25) L/h
12 mg oral, Cohort 4 MDD, Day 1 and Day 22
  CL/F Mean (SD): 85.32 (35.41) L/h
12 mg oral, Cohort 5 MDD, Day 1 and Day 22
  CL/F Mean (SD): 91.95 (25.38) L/h
12 mg oral, Cohorts 4 and 5 MDD, Day 1 and Day 22
  CL/F Mean (SD): 88.72 (30.45) L/h
16 mg oral, Cohort 6 MDD, all subjects incl. 3 with emesis
  CL/F Mean (SD): 128.11 (83.50) L/h
16 mg, 18 doses, no emesis
  mean clearance (CL/F): ~107.2 L/h
16 mg, Cohort 6, N = 18, excluding 3 doses with vomiting postdose
  Observed Mean Cmax: 20.73^2 ng/mL
1.33-fold increase in dose
  fold increase in mean Cmax, 16 mg (18 doses, no emesis) compared to 12 mg: ~1.1 fold
1.5-fold increase in dose
  fold increase in mean AUC, 12 mg compared to 8 mg: 1.7 to 1.8 fold
  fold increase in mean Cmax, 12 mg compared to 8 mg: ~1.2 fold
2.67-fold increase in dose
  mean Cmax, fold higher, 8 mg dose compared to 3 mg dose: 2.45 fold
8-fold increase in dose
  mean AUC0-24, AUClast and AUC0-inf, fold higher, 8 mg compared to 1 mg: 8.1 to 8.3 fold
  mean Cmax, fold higher, 8 mg dose compared to 1 mg dose: 8.6 fold
human, plasma, oral
  fold increase in mean AUC, 16 mg (18 doses, no emesis) compared to 12 mg: ~1.1 fold
  mean AUC0-24, AUClast and AUC0-inf higher for 10 mg compared to 8 mg: ~20%
  mean AUC0-24, AUClast and AUC0-inf, fold higher, 3 mg compared to 1 mg: 3.4 to 3.5 fold
  mean Cmax lower for 10 mg dose cohort compared to 8 mg dose cohort: ~10%
  mean Cmax, fold higher, 3 mg dose compared to 1 mg dose: 3.5 fold
human, plasma, oral, 8 mg, Cohort 2, Day 8, N = 4, read-out: Observed Mean Cmax
  Cmax: 16.6 ng/mL
human, plasma, oral, 8 mg, range of means for 1, 3 and 8 mg doses, read-out: elimination half-life, on average
  half-life: 4.18 to 5.41 h
human, plasma, oral, 16 mg, 18 doses, no emesis, read-out: mean volume of distribution (Vz/F)
  Vd/F: ~834 L
human, plasma, oral, 16 mg, Cohort 6, N = 18, excluding 3 doses with vomiting postdose, read-out: Observed Mean AUC0-24
  AUC(0-t): 165 ng·h/mL
human, plasma, oral, 16 mg, Cohort 6, N = 18, excluding 3 doses with vomiting postdose, read-out: Observed Mean Cmax
  Cmax: 20.7 ng/mL
human, plasma, oral, 16 mg, as given in the text, read-out: mean elimination half-life (T1/2) (converted)
  half-life: 5.58 h
human, plasma, oral, range of means, 1 to 10 mg doses, read-out: apparent volume of distribution (Vz/F), on average
  Vd/F: 584 to 761 L
human, plasma, oral, 10 mg, Cohort 3 Day 8, read-out: plasma psilocin-d10 concentration of one subject at 2 hours postdose
  concentration at 2 h: 18.7 ng/mL
human, plasma, oral, 10 mg, Cohort 3 Day 8, set ~20% below the 2-hour value, read-out: estimated plasma psilocin-d10 concentration of one subject at 4 hours postdose (missed sample)
  concentration at 4 h: 14.9 ng/mL
human, plasma, po, 1 mg, 1 mg oral, Cohort 1 MDD, Day 1 and Day 22 pooled, read-out: AUC0-24 Mean (SD)
  AUC(0-t): 10 ng·h/mL
human, plasma, po, 1 mg, 1 mg oral, Cohort 1 MDD, Day 1 and Day 22 pooled
  AUC(0-inf): 10.2 ng·h/mL
human, plasma, po, 1 mg, 1 mg oral, Cohort 1 MDD, Day 1 and Day 22 pooled, read-out: AUClast Mean (SD)
  AUC(0-t): 10 ng·h/mL
human, plasma, po, 1 mg, 1 mg oral, Cohort 1 MDD, Day 1 and Day 22 pooled, read-out: Cmax Mean (SD)
  Cmax: 1.69 ng/mL
human, plasma, po, 1 mg, 1 mg oral, Cohort 1 MDD, Day 1 and Day 22 pooled, read-out: Cmax Median
  Cmax: 1.7 ng/mL
human, plasma, po, 1 mg, 1 mg oral, Cohort 1 MDD, Day 1 and Day 22 pooled, read-out: T1/2 Mean (SD) (converted)
  half-life: 4.18 h
human, plasma, po, 1 mg, 1 mg oral, Cohort 1 MDD, Day 1 and Day 22 pooled, read-out: Vz/F Mean (SD)
  Vd/F: 608 L
human, plasma, po, 3 mg, 3 mg oral, Cohort 2 NHV, Day 1, read-out: AUC0-24 Mean (SD)
  AUC(0-t): 34.5 ng·h/mL
human, plasma, po, 3 mg, 3 mg oral, Cohort 2 NHV, Day 1
  AUC(0-inf): 35.6 ng·h/mL
human, plasma, po, 3 mg, 3 mg oral, Cohort 2 NHV, Day 1, read-out: AUClast Mean (SD)
  AUC(0-t): 34.5 ng·h/mL
human, plasma, po, 3 mg, 3 mg oral, Cohort 2 NHV, Day 1, read-out: Cmax Mean (SD)
  Cmax: 5.91 ng/mL
human, plasma, po, 3 mg, 3 mg oral, Cohort 2 NHV, Day 1, read-out: Cmax Median
  Cmax: 5.87 ng/mL
human, plasma, po, 3 mg, 3 mg oral, Cohort 2 NHV, Day 1, read-out: T1/2 Mean (SD) (converted)
  half-life: 4.76 h
human, plasma, po, 3 mg, 3 mg oral, Cohort 2 NHV, Day 1, read-out: Vz/F Mean (SD)
  Vd/F: 584 L
human, plasma, po, 8 mg, 8 mg oral, Cohorts 2 and 3 NHV, Day 1 and Day 8 pooled, 2 subjects excluded, read-out: Cmax Mean (SD)
  Cmax: 15 ng/mL

— patent US20240293367A1, “METHODS OF TREATING DISORDERS WITH A […]” (Cybin IRL Limited, priority 2023, published 2024)
